Experimental data: article PMC9775409, “Identification, Screening, and Comprehensive Evaluation of Novel DPP-IV Inhibitory Peptides from the Tilapia Skin Gelatin Hydrolysate Produced Using Ginger Protease” (Biomolecules, 2022)
Read-outs that look alike come from different tables or passages of the source. Non-standard residues stand in square brackets, D forms with d. Residues, ends and D or L forms follow the SMILES beside them. No end group written: not given here. Hyp = O=C(O)[C@@H]1C[C@@H](O)CN1

Tests used:
DPP-IV = test system: DPP-IV; design: method as in PMID 24650211; conditions: in words; cited from earlier work
[1] = Oral administration in rats, LC-MS/MS identification of peptides in plasma; conditions: for Identification in rat plasma, 0.5 h: 0.5 h after oral administration of GPXGPPGPGP; for Identification in rat plasma, 0.5 h / Identification in rat plasma, 1 h: blood from abdominal aorta, ethanol protein precipitation; for Identification in rat plasma, 1 h: 1 h after oral administration of GPXGPPGPGP; for Identified in plasma at 0.5 h: rat plasma 0.5 h after oral administration of GPXGPPGPGP; for Identified in plasma at 0.5 h / Identified in plasma at 1 h: in words; for Identified in plasma at 1 h: rat plasma 1 h after oral administration of GPXGPPGPGP
Method: (§1) Blood was collected at 0.5 and 1 h, after oral administration, from the abdominal aorta and centrifuged (3000× g, 5 min) to acquire plasma. Next, the proteins were precipitated by adding three volumes of 100% ethanol and removed using centrifugation. A volume of 6 μL of supernatant were injected into the LC-MS/MS system, as previously described [16].

[2] = in vivo, po
Method: as §1

Caco-2 cell monolayer = conditions: cited from earlier work

Molecule	Inhibitory effect against DPP-IV (DPP-IV)	Identification in rat plasma, 0.5 h [1]	Identification in rat plasma, 1 h [1]	Identified in plasma at 0.5 h [1]	Identified in plasma at 1 h [1]	Identification in rat plasma, 0.5 h [2]	Identification in rat plasma, 1 h [2]	Identified in plasma at 1 h ([2]; rat)	Passage through the Caco-2 cell monolayer (Caco-2 cell monolayer)
O=C(O)[C@@H]1C[C@@H](O)CN1C(=O)[C@@H]1CCCN1 [PX, Pro-Hyp] (H-Pro-[Hyp]-OH)	not inhibitory against DPP-IV	+	−	identified in plasma at 0.5 h	not at 1 h				
NCC(=O)N1CCC[C@H]1C(=O)N1C[C@H](O)C[C@H]1C(=O)O [GPX, Gly-Pro-Hyp] (H-Gly-Pro-[Hyp]-OH)	inhibitory effect against DPP-IV					+	−	not at 1 h	
O=C(O)CNC(=O)[C@@H]1C[C@@H](O)CN1C(=O)[C@@H]1CCCN1 [PXG, Pro-Hyp-Gly] (H-Pro-[Hyp]-Gly-OH)		+	−	identified in plasma at 0.5 h	not at 1 h				
GA[Hyp]GL[Hyp]GP									pass through the Caco-2 cell monolayer by paracellular diffusion
